From ChEMBL document CHEMBL5058564, “EUbOPEN Chemogenomics Library 2 (Incucyte)” (2022)

Tests used:
Assay type in all cases: toxicity, cell-based
[1] = system: HEK-293T; assay: Incucyte cell viability with HEK293T; conditions: human, 10 µM, compound concentration 10 uM
[2] = system: Fibroblast; assay: Incucyte cell viability with human fibroblast; conditions: 10 µM, compound concentration 10 uM
[3] = system: U2OS; assay: Incucyte cell viability with U2OS; conditions: human, 10 µM, compound concentration 10 uM
[4] = 6 h, replicate number 1, timepoint 6 hours
[5] = 6 h, replicate number 2, timepoint 6 hours
[6] = 12 h, replicate number 1, timepoint 12 hours
[7] = 12 h, replicate number 2, timepoint 12 hours
[8] = 18 h, replicate number 1, timepoint 18 hours
[9] = 24 h, replicate number 1, timepoint 24 hours
[10] = 18 h, replicate number 2, timepoint 18 hours
[11] = 24 h, replicate number 2, timepoint 24 hours
[12] = 0 h, replicate number 2, timepoint 0 hours
[13] = 0 h, replicate number 1, timepoint 0 hours
Also: unitless GR value; below 1 slowed growth and below 0 cell loss.

In the case of `CC[C@H](NC(=O)c1c(C)c(-c2ccccc2)nc2ccccc12)c1ccccc1` [SB-222200], the “Growth Rate” value [1, 4] is reported as 0.76, the “Growth Rate” value [1, 5] is reported as 0.41 and the “Growth Rate” value [1, 6] is reported as 0.77. The “Growth Rate” value [1, 7] was 0.72, the “Growth Rate” value [1, 8] was 0.97 and the “Growth Rate” value [1, 9] was 0.88. The “Growth Rate” value [2, 4] was 0.45, the “Growth Rate” value [2, 5] was -0.34 and the “Growth Rate” value [2, 6] was 0.45. The “Growth Rate” value [2, 7] was 0.48, the “Growth Rate” value [2, 8] was 0.64 and the “Growth Rate” value [2, 10] was 0.91. For the same compound, the “Growth Rate” value [2, 9] was 0.67, the “Growth Rate” value [2, 11] was 0.98 and the “Growth Rate” value [3, 12] was -1. For the same compound, the “Growth Rate” value [3, 7] was 0.93, the “Growth Rate” value [3, 10] was 0.84 and the “Growth Rate” value [3, 11] was 0.93.

In the case of `CC(C)N(CCCCOCC(=O)NS(C)(=O)=O)c1cnc(-c2ccccc2)c(-c2ccccc2)n1` [SELEXIPAG], the “Growth Rate” value [1, 13] is reported as 0.99, the “Growth Rate” value [1, 12] is reported as 0.73 and the “Growth Rate” value [1, 5] is reported as 0.76. For the same compound, the “Growth Rate” value [1, 6] was 0.89, the “Growth Rate” value [1, 7] was 0.73 and the “Growth Rate” value [2, 13] was 0.56. The “Growth Rate” value [2, 12] was 0.34, the “Growth Rate” value [2, 4] was 0.5 and the “Growth Rate” value [2, 6] was 0.75. The “Growth Rate” value [2, 8] was 0.76, the “Growth Rate” value [2, 9] was 0.48 and the “Growth Rate” value [3, 13] was 0.21. The “Growth Rate” value [3, 12] was -1, the “Growth Rate” value [3, 4] was 0.41 and the “Growth Rate” value [3, 7] was 0.8. The “Growth Rate” value [3, 8] was 0.99, the “Growth Rate” value [3, 10] was 0.98 and the “Growth Rate” value [3, 9] was 1.

With `CSCC[C@H](NC(=O)[C@H](CC(C)C)NC(=O)CNC(=O)[C@H](Cc1ccccc1)N(C)C(=O)[C@H](Cc1ccccc1)NC(=O)[C@H](CC(=O)O)NC(=O)CCC(=O)O)C(N)=O` [SENKTIDE] the “Growth Rate” value [1, 13] was 0.75, the “Growth Rate” value [1, 12] was -0.03 and the “Growth Rate” value [1, 4] was 0.83. For the same compound, the “Growth Rate” value [1, 7] was 0.93, the “Growth Rate” value [1, 8] was 0.92 and the “Growth Rate” value [1, 9] was 0.84. The “Growth Rate” value [1, 11] was 0.88, the “Growth Rate” value [2, 13] was 0.34 and the “Growth Rate” value [2, 12] was 0.41. For the same compound, the “Growth Rate” value [2, 5] was 0.25, the “Growth Rate” value [2, 6] was 0.98 and the “Growth Rate” value [2, 7] was 0.87. The “Growth Rate” value [2, 9] was 0.9, the “Growth Rate” value [3, 6] was 0.94 and the “Growth Rate” value [3, 7] was 0.98. For the same compound, the “Growth Rate” value [3, 10] was 0.91.

With `CC1=C(C)C(=O)C(C(CCCCCC(=O)O)c2ccccc2)=C(C)C1=O` (stereo unspecified) [SERATRODAST] the “Growth Rate” value [1, 5] was 0.54, the “Growth Rate” value [1, 7] was 0.63 and the “Growth Rate” value [2, 13] was 1. For the same compound, the “Growth Rate” value [2, 4] was 0.67, the “Growth Rate” value [3, 13] was -0.5 and the “Growth Rate” value [3, 12] was -1. The “Growth Rate” value [3, 11] was 0.99.

`Cl.NCCc1c[nH]c2ccc(O)cc12` [SEROTONIN HYDROCHLORIDE] was tested, and the “Growth Rate” value [1, 13] was 0.58, the “Growth Rate” value [1, 12] was 0.43 and the “Growth Rate” value [2, 12] was 0.19. The “Growth Rate” value [2, 7] was 1, the “Growth Rate” value [3, 13] was 0.29 and the “Growth Rate” value [3, 12] was 0.12. For the same compound, the “Growth Rate” value [3, 4] was 0.46, the “Growth Rate” value [3, 5] was 0.79 and the “Growth Rate” value [3, 6] was 0.38. The “Growth Rate” value [3, 7] was 0.97, the “Growth Rate” value [3, 8] was 0.67 and the “Growth Rate” value [3, 9] was 0.62.

For `Cc1c(C(=O)Nc2ccc(N3C[C@@H](C)O[C@@H](C)C3)nc2)cccc1-c1ccc(OC(F)(F)F)cc1` [SONIDEGIB], the “Growth Rate” value [1, 12] was -0.95, the “Growth Rate” value [1, 4] was 0.25 and the “Growth Rate” value [1, 5] was -0.63. The “Growth Rate” value [1, 6] was -0.06, the “Growth Rate” value [1, 7] was -0.54 and the “Growth Rate” value [1, 8] was 0. For the same compound, the “Growth Rate” value [1, 10] was -0.39, the “Growth Rate” value [1, 9] was 0.05 and the “Growth Rate” value [1, 11] was -0.3. For the same compound, the “Growth Rate” value [2, 13] was 0.97, the “Growth Rate” value [2, 12] was 0.63 and the “Growth Rate” value [2, 4] was 0.45. For the same compound, the “Growth Rate” value [2, 6] was 0.42, the “Growth Rate” value [2, 8] was 0.13 and the “Growth Rate” value [2, 9] was 0.36. The “Growth Rate” value [3, 13] was -0.44, the “Growth Rate” value [3, 12] was -1 and the “Growth Rate” value [3, 11] was 0.97.

In the case of `CCCCCCCCCCCCC/C=C/[C@@H](O)[C@@H](N)COP(=O)([O-])OCC[N+](C)(C)C` [SPHINGOSYLPHOSPHORYLCHLOLINE], the “Growth Rate” value [1, 4] is reported as -0.01, the “Growth Rate” value [1, 5] is reported as -0.35 and the “Growth Rate” value [1, 6] is reported as 0.28. The “Growth Rate” value [1, 7] was -0.08, the “Growth Rate” value [1, 8] was 0.46 and the “Growth Rate” value [1, 10] was 0.29. For the same compound, the “Growth Rate” value [1, 9] was 0.43, the “Growth Rate” value [1, 11] was 0.54 and the “Growth Rate” value [2, 4] was -0.36. For the same compound, the “Growth Rate” value [2, 5] was -0.69, the “Growth Rate” value [2, 6] was -0.22 and the “Growth Rate” value [2, 7] was -0.25. The “Growth Rate” value [2, 8] was -0.17, the “Growth Rate” value [2, 10] was 0.1 and the “Growth Rate” value [2, 9] was 0.17. The “Growth Rate” value [2, 11] was 0.07, the “Growth Rate” value [3, 4] was 0.97 and the “Growth Rate” value [3, 7] was 0.91. The “Growth Rate” value [3, 10] was 0.8, the “Growth Rate” value [3, 9] was 0.9 and the “Growth Rate” value [3, 11] was 0.88.

In the case of `CS(=O)(=O)N1CCCC(NC(=O)[C@H](CCC2CCCCC2)NC(=O)c2ccc(CNc3ncnc4c3nnn4-c3ccccc3)cc2)C1` (stereo partly specified) [SR-301], the “Growth Rate” value [1, 12] is reported as 0.12, the “Growth Rate” value [1, 4] is reported as -0.5 and the “Growth Rate” value [1, 6] is reported as -0.33. For the same compound, the “Growth Rate” value [1, 8] was -0.23, the “Growth Rate” value [1, 9] was -0.11 and the “Growth Rate” value [2, 12] was -0.06. The “Growth Rate” value [2, 4] was -0.33, the “Growth Rate” value [2, 6] was -0.47 and the “Growth Rate” value [2, 8] was -0.48. The “Growth Rate” value [2, 9] was -0.39, the “Growth Rate” value [3, 13] was 0.63 and the “Growth Rate” value [3, 4] was 0.78. For the same compound, the “Growth Rate” value [3, 6] was 0.94, the “Growth Rate” value [3, 8] was 0.6 and the “Growth Rate” value [3, 10] was 0.89. For the same compound, the “Growth Rate” value [3, 9] was 0.6.
